Reference: article PMC6205551, “Molecular analysis of the dual targeting of the epidermal growth factor receptor and the O^6-methylguanine-DNA methyltransferase with a double arm hybrid molecule” (Oncotarget, 2018)

Tests used:
[1] = molecular target: T1, O^6-methylguanine-DNA methyltransferase (MGMT) (Homo sapiens, UniProt P16455); assay: MALDI-TOF MS of tryptic peptides of isolated MGMT incubated with […] compound (S-benzylation); assay type: binding
T1 sequence (P16455 1-207): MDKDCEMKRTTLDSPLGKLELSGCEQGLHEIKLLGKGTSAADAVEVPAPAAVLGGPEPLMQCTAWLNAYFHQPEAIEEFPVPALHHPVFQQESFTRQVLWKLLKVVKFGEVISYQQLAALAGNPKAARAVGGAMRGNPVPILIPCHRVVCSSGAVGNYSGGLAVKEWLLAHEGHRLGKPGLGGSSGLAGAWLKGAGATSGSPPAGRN

HER4 = molecular target: T2, HER4 (Homo sapiens, UniProt Q15303); assay: isolated kinase profiling (Carna), single dose […], ATP at Km; assay type: biochemical
T2 construct: gene ERBB4

HER2 = molecular target: T3, HER2 (Homo sapiens, UniProt P04626); assay: as above; assay type: biochemical
T3 construct: gene ERBB2

[2] = molecular target: epidermal growth factor receptor (EGFR) (Homo sapiens, UniProt P00533); assay: in vitro EGFR kinase assay (PGT substrate, […] ATP, ELISA); assay type: biochemical
EGFR (L858R) = EGFR (L858R) (Homo sapiens, UniProt P00533, L858R); assay: isolated kinase profiling (Carna), single dose […], ATP at Km; assay type: biochemical

T3 sequence (P04626 23-1255): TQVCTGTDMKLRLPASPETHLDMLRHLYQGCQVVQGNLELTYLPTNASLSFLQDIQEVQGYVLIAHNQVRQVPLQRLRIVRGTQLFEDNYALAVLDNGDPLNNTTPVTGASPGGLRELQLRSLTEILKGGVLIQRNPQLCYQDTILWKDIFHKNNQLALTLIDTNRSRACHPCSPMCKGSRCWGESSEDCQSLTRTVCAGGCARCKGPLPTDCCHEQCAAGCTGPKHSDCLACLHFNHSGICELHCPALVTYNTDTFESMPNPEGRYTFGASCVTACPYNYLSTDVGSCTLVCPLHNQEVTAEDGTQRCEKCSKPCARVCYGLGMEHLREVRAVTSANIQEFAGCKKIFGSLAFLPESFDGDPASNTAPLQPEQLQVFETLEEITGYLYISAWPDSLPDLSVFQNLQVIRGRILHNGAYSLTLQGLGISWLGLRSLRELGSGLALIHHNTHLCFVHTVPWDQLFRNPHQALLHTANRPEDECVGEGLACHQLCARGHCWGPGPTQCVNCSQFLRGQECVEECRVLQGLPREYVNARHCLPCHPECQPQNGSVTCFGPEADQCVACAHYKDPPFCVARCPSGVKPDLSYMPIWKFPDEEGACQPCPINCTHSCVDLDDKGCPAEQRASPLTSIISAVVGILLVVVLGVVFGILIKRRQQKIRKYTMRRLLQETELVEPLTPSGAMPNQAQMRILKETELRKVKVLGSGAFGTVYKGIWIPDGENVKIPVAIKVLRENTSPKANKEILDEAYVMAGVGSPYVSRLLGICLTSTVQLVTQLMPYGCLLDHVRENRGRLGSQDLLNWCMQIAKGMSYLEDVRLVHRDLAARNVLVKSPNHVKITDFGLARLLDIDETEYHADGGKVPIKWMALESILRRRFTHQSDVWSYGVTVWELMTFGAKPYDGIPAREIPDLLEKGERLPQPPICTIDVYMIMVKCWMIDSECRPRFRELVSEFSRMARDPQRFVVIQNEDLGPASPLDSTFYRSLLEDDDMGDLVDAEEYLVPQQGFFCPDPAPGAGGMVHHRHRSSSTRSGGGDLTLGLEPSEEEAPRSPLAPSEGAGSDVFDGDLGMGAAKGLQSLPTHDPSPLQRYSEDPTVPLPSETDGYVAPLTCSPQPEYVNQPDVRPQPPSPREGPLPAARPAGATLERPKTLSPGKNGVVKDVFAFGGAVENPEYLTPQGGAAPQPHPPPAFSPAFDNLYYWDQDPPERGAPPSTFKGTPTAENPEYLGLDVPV
T2 sequence (Q15303 26-1308): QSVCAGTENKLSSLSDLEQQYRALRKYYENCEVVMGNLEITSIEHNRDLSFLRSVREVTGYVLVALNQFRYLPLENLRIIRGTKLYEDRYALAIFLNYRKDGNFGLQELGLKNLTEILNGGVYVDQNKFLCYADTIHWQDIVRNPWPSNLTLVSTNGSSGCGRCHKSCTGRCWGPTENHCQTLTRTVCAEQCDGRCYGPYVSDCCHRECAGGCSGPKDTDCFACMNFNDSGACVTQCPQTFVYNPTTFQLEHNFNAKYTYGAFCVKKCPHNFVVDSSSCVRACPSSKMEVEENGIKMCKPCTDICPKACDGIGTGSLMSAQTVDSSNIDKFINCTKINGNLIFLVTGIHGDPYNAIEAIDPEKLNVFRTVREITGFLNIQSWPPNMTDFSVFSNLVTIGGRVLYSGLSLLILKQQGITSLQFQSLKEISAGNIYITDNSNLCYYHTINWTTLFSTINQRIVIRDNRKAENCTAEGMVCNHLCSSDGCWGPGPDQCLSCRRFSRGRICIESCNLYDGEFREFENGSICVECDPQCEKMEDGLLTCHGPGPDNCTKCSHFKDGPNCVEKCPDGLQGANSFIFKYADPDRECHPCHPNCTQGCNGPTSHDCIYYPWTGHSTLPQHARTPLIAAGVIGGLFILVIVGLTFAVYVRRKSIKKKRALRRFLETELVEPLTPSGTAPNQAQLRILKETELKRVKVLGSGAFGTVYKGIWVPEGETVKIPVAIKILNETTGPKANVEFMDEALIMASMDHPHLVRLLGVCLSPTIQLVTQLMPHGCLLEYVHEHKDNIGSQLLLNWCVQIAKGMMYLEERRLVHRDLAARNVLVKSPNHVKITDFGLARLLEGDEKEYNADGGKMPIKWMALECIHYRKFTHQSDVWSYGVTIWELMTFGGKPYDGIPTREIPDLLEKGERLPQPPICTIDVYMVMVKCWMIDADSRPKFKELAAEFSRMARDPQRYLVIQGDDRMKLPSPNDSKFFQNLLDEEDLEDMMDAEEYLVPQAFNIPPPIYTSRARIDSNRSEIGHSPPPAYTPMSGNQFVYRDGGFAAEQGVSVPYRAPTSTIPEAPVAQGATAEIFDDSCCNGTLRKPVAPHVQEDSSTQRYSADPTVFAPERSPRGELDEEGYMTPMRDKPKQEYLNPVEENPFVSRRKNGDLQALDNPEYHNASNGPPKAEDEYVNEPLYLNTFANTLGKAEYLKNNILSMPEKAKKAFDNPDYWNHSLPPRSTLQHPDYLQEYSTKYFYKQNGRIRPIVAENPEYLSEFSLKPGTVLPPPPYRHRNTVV

IC50 [2] [nM] | Compound | MALDI-TOF MS of tryptic peptides of isolated MGMT incubated with 10 μM compound [1] | isolated kinase profiling (Carna), single dose 500 nM, ATP at Km (HER4) | isolated kinase profiling (Carna), single dose 500 nM, ATP at Km (HER2) | isolated kinase profiling (Carna), single dose 500 nM, ATP at Km (EGFR (L858R))
– | Nc1nc(OCc2ccccc2)c2nc[nH]c2n1 [O^6-BG] | when we treated MGMT with MR30 or O^6-BG, we observed a mass shift | – | – | –
300 ± 170 | Nc1nc(OCc2ccccc2)c2ncn(C(=O)N3CCN(CCNc4ccc5ncnc(Nc6cccc(Br)c6)c5c4)CC3)c2n1 [compound 5, (2-amino-6-(benzyloxy)-9H-purin-9-yl)(4-(2-((4-((3-bromophenyl)amino)quinazolin-6-yl)amino)ethyl)piperazin-1-yl)methanone] | like O^6-BG, MR30 is capable of binding to MGMT and alkylate its Cys145 | MR30 selectively inhibited kinases from HER family of proteins, including EGFR, EGFR (L858R, d746-750), HER2 and HER4 | MR30 selectively inhibited kinases from HER family of proteins, including EGFR, EGFR (L858R, d746-750), HER2 and HER4 | MR30, selectively inhibited kinases from the HER family of proteins [e.g. EGFR wild-type, EGFR (L858R)
